The source of these data is patent US9840478B2 (MERCK SHARP & DOHME CORP., priority 2013, dated 2017).

The first test relates to HIV-1 (H9IIIB strain). In words: Cell-based HIV infection assay using a reporter (Cell-Based), MT4-GFP cells. The conditions noted are these: Human immunodeficiency virus 1, MT4-GFP cells infected with HIV-1 H9IIIB; 50% normal human serum; mean of at least two independent experiments; read-out: Cell-based IP. As for the experimental part: Cell-Based HIV Infection Assay Using a Reporter (“Cell-Based”):
MT4-GFP cells contain a stably integrated HIV long terminal repeat promoter directing the transcription of green fluorescent protein (GFP). When HIV infects the cell, GFP is produced and the cell becomes green. MT4-GFP cells (250,000 cells/ml) were bulk-infected with HIV-1 (H9IIIB strain) at low multiplicity of infection (MOI) in RPMI media, supplemented with 10% FBS for 24 hours. Cells were then washed once in RPMI plus 10% FBS and resuspended in RPMI plus 50% normal human serum (NHS). Test compounds were serial-diluted in DMSO using an ECHO liquid dispenser. A control well included a combination of three HIV drugs (an inhibitor of HIV protease, integrase strand transfer and a non-nucleoside reverse transcriptase inhibitor; triple drug). The infected MT4-GFP cells were added to a 384-well poly-D-lysine coated black plate with clear bottom in which the diluted test compounds were placed. The cells were seeded in the plate at 8,000 cells per well and the final DMSO concentration was 0.4%. Infected cells were quantified at both 24 and 48 hours post incubation using an Acumen eX3 plate reader. Viral reproductive ratio (R0) was determined using the number of infected cells at 48 hours divided by the number of infected cells at 24 hours. Percent viral growth inhibition was calculated by [1−(R−Rtripledrug)/(RDMSO−Rtripledrug)]*100. Compound potency IP or IC50 was determined with use of a 4-parameter dose response curve analysis.
For the compound `O=C(Nc1cccc(F)c1CC[C@H]1CNCCN1S(=O)(=O)c1ccccc1)[C@@H](O)C(c1ccccc1)c1ccccc1` (single isomer, unassigned) [Example 364], the IC50 was found to be 34 nM.
Same read-out and setting: under `O=C(Nc1cccc(F)c1CC[C@H]1CNCCN1S(=O)(=O)c1ccccc1)[C@H](O)C(c1ccccc1)c1ccccc1` (single isomer, unassigned) [Example 365] stands 68 nM.
Same read-out and setting: the same measure for `COc1ccc([C@H](c2ccc(Cl)cc2)[C@H](N)C(=O)Nc2cccc(F)c2CC[C@H]2CNCC(C)N2S(=O)(=O)C2CC2)cn1` (stereo in doubt) [Example 152, (βS)-4-chloro-N-(2-{2-[(2S,6S)-1-(cyclopropylsulfonyl)-6-methylpiperazin-2-yl]ethyl}-3-fluorophenyl)-β-(6-methoxypyridin-3-yl)-L-phenylalaninamide]: 39 nM; for `N[C@H](C(=O)Nc1cncc(F)c1CC[C@H]1CNCCN1S(=O)(=O)c1ccccc1)C(c1cccc(F)c1)c1cccc(F)c1` [Example 4, (S)-2-Amino-N-(5-fluoro-4-(2-((S)-1-(phenylsulfonyl)piperazin-2-yl)ethyl)pyridine-3-yl)-3,3-bis(3-fluorophenyl)propanamide]: 4.3 nM.
As for `COC(=O)N[C@H](C(=O)Nc1cccc(F)c1CC[C@H]1CNCCN1S(=O)(=O)c1ccccc1)[C@@H](c1ccc(Cl)cc1)c1ccc(OC)nc1` [Example 5, Methyl ((1S,2S)-1-(4-chlorophenyl)-3-((3-fluoro-2-(2((S)-1-(phenylsulfonyl)piperizin-2-yl)ethyl)phenyl)amino)-1-(6-methoxypyridin-3-yl)-3-oxopropan-2-yl)carbamate], the IC50 was 5.9 nM.
The same measure, in the same setting: the same measure for `N[C@H](C(=O)Nc1cccc(F)c1CC[C@H]1CNCCN1S(=O)(=O)c1ccccc1)[C@@H](c1ccc(Cl)cc1)c1cncc(C(F)(F)F)c1` [Example 6, (2S,3S)-2-amino-3-(4-chlorophenyl)-N-(3-fluoro-2-(2-((S)-1-(phenylsulfonyl)piperazin-2-yl)ethyl)phenyl)-3-(5-(trifluoromethyl)pyridine-3-yl)propanamide]: 7.8 nM.
On the same count and under the same terms, under `COC(=O)N[C@H](C(=O)Nc1cccc(F)c1CC[C@H]1CNC[C@H](C)N1S(=O)(=O)c1ccccc1)[C@@H](c1ccc(F)cc1)C1CCOCC1` [Example 7, Methyl ((2S,3R)-1-((3-fluoro-2-(2-((2S,6S)-6-methyl-1-(phenylsulfonyl)piperazin-2-yl)ethyl)phenyl)amino)-3-(4-fluorophenyl)-1-oxo-3-(tetrahydro-2H-pyran-4-yl)propan-2-yl)carbamate] stands 6 nM; under `COC(=O)N[C@H](C(=O)Nc1cncc(F)c1CC[C@H]1CNC[C@H](C)N1S(=O)(=O)c1ccccc1)[C@@H](c1ccc(Cl)cc1)C(C)C` [Example 8, Methyl ((2S,3R)-3-(4-chlorophenyl)-1-((5-fluoro-4-(2-((2S,6S)-6-methyl-1-(phenylsulfonyl)piperzin-2-yl)ethyl)pyridin-3-yl)amino)-4-methyl-1-oxopentan-2-yl)carbamate], 9.8 nM; under `COc1ccc(S(=O)(=O)N2[C@@H](CCc3c(F)cncc3NC(=O)[C@@H](N)[C@@H](c3ccc(Cl)cc3)C3CCOCC3)CNC[C@@H]2C)cc1` [Example 9, (2S,3R)-2-Amino-3-(4-chlorophenyl)-N-(5-fluoro-4-(2-((2S,6S)-1-((4-methoxyphenyl)sulfonyl)-6-methylpiperazin-2-yl)ethyl)pyridin-3-yl)-3-(tetrahydro-2H-pyran-4-yl)propanamide], 7.1 nM.
On the same count and under the same terms, under `C[C@H]1CNC[C@H](CCc2c(F)cccc2NC(=O)[C@@H](N)C(c2cccc(F)c2)c2cccc(F)c2)N1S(=O)(=O)c1ccccc1` [Example 10, (S)-2-Amino-N-(3-fluoro-2-(2-((2S,6S)-6-methyl-1-(phenylsulfonyl)piperazin-2-yl)ethyl)phenyl)-3,3-bis(3-fluorophenyl)propanamide] stands 11 nM; under `COC(=O)N[C@H](C(=O)Nc1cncc(F)c1CC[C@H]1CNC[C@H](C)N1S(=O)(=O)C1CC1)[C@@H](c1ccc(Cl)cc1)c1cccc(F)c1` [Example 11, Methyl ((1S,2S)-1-(4-chlorophenyl)-3-((4-(2-((2S,6S)-1-(cyclopropylsulfonyl)-6-methylpiperazin-2-yl)ethyl)-5-fluoropyridin-3-yl)amino)-1-(3-fluorophenyl)-3-oxopropan-2-yl)carbamate], 11 nM; under `COC(=O)N[C@H](C(=O)Nc1cccc(F)c1CC[C@H]1CNC[C@H](C)N1S(=O)(=O)C1CC1)[C@@H](c1ccc(Cl)cc1)C1CCOCC1` [Example 12, Methyl (1R,2S)-1-(4-chlorophenyl)-3-(2-(2-((2S,6S)-1-(cyclopropylsulfonyl)-6-methylpiperazin-2-yl)ethyl)-3-fluorophenylamino)-3-oxo-1-(tetrahydro-2H-pyran-4-yl)propan-2-ylcarbamate], 18 nM.
Turning to `C[C@@H]1CNC[C@H](CCc2c(F)cncc2NC(=O)[C@@H](N)[C@@H](c2ccc(F)cc2)c2cc(F)cc(F)c2)N1S(=O)(=O)c1ccccc1` [Example 13, (βS)-β-(3,5-difluorophenyl)-4-fluoro-N-(5-fluoro-4-{2-[(2S,6R)-6-methyl-1-(phenylsulfonyl)piperazin-2-yl]ethyl}pyridin-3-yl)-L-phenylalaninamide], the IC50 came to 20 nM.
Same read-out and setting: under `COc1ccc([C@H](c2ccc(Cl)cc2)[C@H](N)C(=O)Nc2cccc(F)c2CC[C@H]2CNC[C@@H](C)N2S(=O)(=O)c2ccccc2)cn1` [Example 14, (βS)-4-chloro-N-(3-fluoro-2-{2-[(2S,6R)-6-methyl-1-(phenylsulfonyl)piperazin-2-yl]ethyl}phenyl)-β-(6-methoxypyridin-3-yl)-L-phenylalaninamide] stands 18 nM; under `C[C@@H]1CNC[C@H](CCc2c(F)cncc2NC(=O)[C@@H](N)[C@@H](c2ccc(F)cc2)c2cc(F)cc(F)c2)N1S(=O)(=O)C1CC1` [Example 15, (βS)—N-(4-{2-[(2S,6R)-1-(cyclopropylsulfonyl)-6-methylpiperazin-2-yl]ethyl}-5-fluoropyridin-3-yl)-β-(3,5-difluorophenyl)-4-fluoro-L-phenylalaninamide], 18 nM.
The same measure, in the same setting: under `COc1ccc(S(=O)(=O)N2[C@@H](CCc3c(F)cccc3NC(=O)[C@@H](N)[C@@H](c3ccc(F)cc3)c3cc(F)cc(F)c3)CNC[C@H]2C)cc1` [Example 16, (βS)-β-(3,5-difluorophenyl)-4-fluoro-N-[3-fluoro-2-(2-{(2S,6R)-1-[(4-methoxyphenyl)sulfonyl]-6-methylpiperazin-2-yl}ethyl)phenyl]-L-phenylalaninamide] stands 5.4 nM.
Consider `COC(=O)N[C@H](C(=O)Nc1cncc(F)c1CC[C@H]1CNC[C@@H](C)N1S(=O)(=O)c1ccccc1)[C@@H](c1ccc(Cl)cc1)C(C)C` [Example 17, (βR)-4-chloro-N-(5-fluoro-4-{2-[(2S,6R)-6-methyl-1-(phenylsulfonyl)piperazin-2-yl]ethyl}pyridin-3-yl)-Nα-(methoxycarbonyl)-β-(1-methylethyl)-L-phenylalaninamide], for which the IC50 stood at 4.4 nM.
The same measure, in the same setting: under `COC(=O)N[C@H](C(=O)Nc1cccc(F)c1CC[C@H]1CNC[C@@H](C)N1S(=O)(=O)c1ccc(F)cc1)[C@@H](c1ccc(Cl)cc1)C1CCOCC1` [Example 18, Methyl ((1R,2S)-1-(4-chlorophenyl)-3-((3-fluoro-2-(2-((2S,6R)-1-((4-fluorophenyl)sulfonyl)-6-methylpiperazin-2-yl)ethyl)phenyl)amino)-3-oxo-1-(tetrahydro-2H-pyran-4-yl)propan-2-yl)carbamate] stands 8.6 nM.

Staying with this test, now noted: MT4-GFP cells infected with HIV-1 H9IIIB; 50% normal human serum; mean of at least two independent experiments; read-out: Cell-based IP.
With `COC(=O)NC(C(=O)NC1CC1CC[C@H]1CNCCN1S(=O)(=O)c1ccccc1)C(c1ccc(F)cc1)c1ccc(F)cc1` (single isomer, unassigned) [Example 362], the IC50 was found to be 76 nM.
On the same count and under the same terms, under `COC(=O)NC(C(=O)NC1CC1CC[C@H]1CNCCN1S(=O)(=O)c1ccccc1)C(c1ccc(F)cc1)c1ccc(F)cc1` (single isomer, unassigned) [Example 363] stands 370 nM; under `COC(=O)NC(C(=O)NC1CC(F)(F)CC1CC[C@H]1CNCCN1S(=O)(=O)c1ccccc1)C(c1ccc(F)cc1)c1ccc(F)cc1` (stereo in doubt) [Example 358, Methyl ((2R)-1-((4,4-difluoro-2-(2-((S)-1-(phenylsulfonyl)piperazin-2-yl)ethyl)cyclopentyl)amino)-3,3-bis(4-fluorophenyl)-1-oxopropan-2-yl)carbamate], 160 nM.
`COC(=O)NC(C(=O)NC1CC(F)(F)CC1CC[C@H]1CNCCN1S(=O)(=O)c1ccccc1)C(c1ccc(F)cc1)c1ccc(F)cc1` (stereo in doubt) [Example 359, Methyl ((2R)-1-((4,4-difluoro-2-(2-((S)-1-(phenylsulfonyl)piperazin-2-yl)ethyl)cyclopentyl)amino)-3,3-bis(4-fluorophenyl)-1-oxopropan-2-yl)carbamate]: the IC50 is 530 nM.
